Data as given in patent US5306824A, “Biotinylated isocoumarins” (Georgia Tech Research Corporation, priority 1992, dated 1994).

Columns and labels:
cathepsin G (cat G) = biological target: T1, cathepsin G (cat G) (Homo sapiens, UniProt P08311); experiment: Inactivation of cathepsin G by biotin-isocoumarins (incubation method); assay type: biochemical; conditions: inhibitor 75-400 μM; pH 7.5, 25° C.; NI = no inhibition after 10 min of incubation; read-out: kobs/[I] Cat. G
T1 sequence (P08311 21-255): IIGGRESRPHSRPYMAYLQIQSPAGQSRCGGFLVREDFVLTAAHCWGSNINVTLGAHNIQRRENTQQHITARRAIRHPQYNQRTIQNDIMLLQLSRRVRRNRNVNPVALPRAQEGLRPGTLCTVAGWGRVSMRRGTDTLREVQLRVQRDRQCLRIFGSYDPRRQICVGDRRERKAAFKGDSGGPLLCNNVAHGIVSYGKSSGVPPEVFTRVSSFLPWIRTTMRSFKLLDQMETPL
Protocol: (§1) Inactivation rates of serine proteases by substituted isocoumarins were measured by the incubation method. An aliquot of inhibitor (25 or 50 μl) in Me2 SO was added to a buffered enzyme solution (0.01-2.3 μM) to initiate the inactivation. Aliquots (50-100 μl) were withdrawn at various intervals and the residual enzymatic activity was measured. Me2 SO concentration in the reaction mixture was 8-12% (v/v). 0.1M Hepes, 0.5M NaCl, pH 7.5 buffer was utilized for the assays of chymotrypsin, cathepsin G (cat G), porcine pancreatic elastase (PPE), human leukocyte elastase (HLE) and rat granule serine proteases. 0.1M Hepes, 0.01M CaCl2, pH 7.5 buffer was utilized for the assays of trypsin and human recombinant (HR) granzyme A. The inhibitor concentrations are shown in the Tables I and II. Peptide nitroanilides with appropriate sequence were used as substrates for various serine proteases. All peptide 4-nitroanilide hydrolysis was measured at 410 nm (ε410 =8800M^-1 cm^-1; Erlanger et al., Arch. Biochem. Biophys. 95, pp 271-278 (1961), incorporated herein by reference). Peptide thioester hydrolysis rates were measured with assay mixtures containing 4,4'-dithiodipyridine (ε324 =19800M^-1 cm^-1; Grasetti & Murray, Arch. Biochem. Biophys. 119, pp. 41-49 (1967), incorporated herein by reference). First order inactivation rate constant (kobs) were obtained from plots of ln (vt /vo) vs time, and the correlation coefficients were greater than 0.98.
(§2) ^a Inhibition was measured in 0.1 M Hepes, 0.5 M NaCl (or 0.01 M
(§3) CaCl2), pH 7.5 buffer, 5-10% Me2 SO and at 25° C.
(§4) SucVal-Pro-NA (0.48 mM) was used as the substrate for chymotrypsin and ca
(§5) G. MeOSuc-Ala-Ala-Pro-Val-NA (0.24-0.47 mM) and SucAla-Ala-Ala-NA
^c Inhibitor concentrations were 75-400 μM.
(§6) ^h No inhibition after 10 min of incubation of inhibitor and enzyme.
(§7) ^i Percentage of inhibition after 10 min of incubation of inhibitor

[1] = biological target: T2, human recombinant (HR) granzyme A (Homo sapiens, UniProt P12544); experiment: Inactivation of human recombinant granzyme A by biotin-isocoumarins (incubation method); assay type: biochemical; conditions: inhibitor 160-210 μM, pH 7.5, 25° C.
T2 sequence (P12544 29-262): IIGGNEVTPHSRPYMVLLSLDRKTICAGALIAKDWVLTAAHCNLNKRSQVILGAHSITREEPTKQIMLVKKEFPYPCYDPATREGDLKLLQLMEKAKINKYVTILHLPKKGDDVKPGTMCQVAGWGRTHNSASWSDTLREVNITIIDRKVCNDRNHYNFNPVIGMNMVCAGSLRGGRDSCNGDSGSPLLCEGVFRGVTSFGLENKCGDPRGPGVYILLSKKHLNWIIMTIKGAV
Protocol: as §1, §2, §3
(§8) ZGlu-Phe-Arg-NA (0.032 mM) was a substrate for trypsin. ZArg-SBzl (0.120
mM) was a substrate for human recombinant (HR) granzyme A.
^g Inhibitor concentrations were 160-210 μM.
as §6, §7

[2] = biological target: T3, human leukocyte elastase (HLE) (Homo sapiens, UniProt P08246); experiment: Inactivation of human leukocyte elastase by biotin-isocoumarins (incubation method); assay type: biochemical; conditions: inhibitor 1.6-210 μM; pH 7.5, 25° C.; read-out: kobs/[I] HLE
T3 sequence (P08246 30-267): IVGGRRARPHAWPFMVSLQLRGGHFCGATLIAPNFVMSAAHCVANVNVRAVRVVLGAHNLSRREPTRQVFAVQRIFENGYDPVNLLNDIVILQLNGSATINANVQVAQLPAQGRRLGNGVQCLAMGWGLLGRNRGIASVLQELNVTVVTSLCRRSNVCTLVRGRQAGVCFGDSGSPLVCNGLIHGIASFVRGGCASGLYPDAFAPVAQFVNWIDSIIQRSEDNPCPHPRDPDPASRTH
Protocol: as §1, §2, §3, §5
(§9) (0.29-0.48 mM) were used as the substrate for HLE and PPE respectively.
^d Inhibitor concentrations were 1.6-210 μM.

PPE [3] = biological target: T4, PPE (Sus scrofa, UniProt P00772); experiment: Elution of inhibited PPE from avidin-agarose column with NH2OH; assay type: biochemical, porcine
T4 sequence (P00772 27-266): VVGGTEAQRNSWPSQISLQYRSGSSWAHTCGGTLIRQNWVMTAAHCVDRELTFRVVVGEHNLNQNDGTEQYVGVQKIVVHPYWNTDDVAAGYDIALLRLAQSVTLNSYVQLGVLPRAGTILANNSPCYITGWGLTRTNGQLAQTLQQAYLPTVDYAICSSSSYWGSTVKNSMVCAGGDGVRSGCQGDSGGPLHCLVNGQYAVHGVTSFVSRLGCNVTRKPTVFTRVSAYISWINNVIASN
Protocol: Elution of inhibited PPE by 7-[6-(6-biotinylaminocaproyl)aminocaproyl]amino-4-chloro-3-methoxyisocoumarin from avidin-agarose column with NH2 OH.
PPE (1 mg, […]) was inhibited by biotinylated isocoumarin (0.5 mmole) in 0.1M Hepes, 0.5M NaCl, pH 7.5 buffer at 25° C. for 10 min, 7% of residual enzyme activity was found. Excess of inhibitors was removed by Sephadex G-25 column and the inhibited PPE was eluted with 0.1M acetate, 0.5M NaCl, pH 5.0 buffer and had 16% of enzyme activity. This inhibited enzyme solution was then applied on the avidin-agarose column and 34% of protein went through (measured by optical density at 280 nm). The column was washed with pH 5.0 acetate buffer, then eluted with 0.1M Hepes, 0.5M NaCl, and 0.5M NH2 OH, pH 7.5 buffer and 37% of protein was eluted out (measured by OD280) from the column. In these protein fractions, 40% of PPE activity was detected.

PPE [4] = biological target: T4, PPE; experiment: Reactivation of inhibited PPE in buffer and with NH2OH; assay type: biochemical, porcine
Protocol: ^a Inhibition was performed at 0.1 M Hepes, 0.5 M NaCl, pH 7.5 buffer
10% Me2 SO and 25° C. Reactivation was carried out in the
presence of 0.4 M of NH2 OH, and occurred immediately after the
^b Enzyme activity was measured after removal of excess inhibitor by
centrifugation at 0° C. with centricon10 microconcentrator and
staying at 25° C. for two days.

[5] = biological target: porcine pancreatic elastase (PPE) (Sus scrofa, UniProt P00772); experiment: Inactivation of porcine pancreatic elastase by biotin-isocoumarins (incubation method); assay type: biochemical; conditions: inhibitor 38-78 μM; pH 7.5, 25° C.; NI = no inhibition after 10 min of incubation; read-out: kobs/[I] PPE
Chain of porcine pancreatic elastase (PPE) (P00772 27-266): as above
Protocol: as §1, §2, §3, §5, §9
^e Inhibitor concentrations were 38-78 μM.
as §6

trypsin = biological target: T5, trypsin (Bos taurus, UniProt P00760); experiment: Inactivation of trypsin by biotin-isocoumarins (incubation method); assay type: biochemical; conditions: inhibitor 41-42 μM; 0.1 M Hepes, 0.01 M CaCl2, pH 7.5, 25° C.; read-out: kobs/[I] Trypsin
T5 sequence (P00760 24-246): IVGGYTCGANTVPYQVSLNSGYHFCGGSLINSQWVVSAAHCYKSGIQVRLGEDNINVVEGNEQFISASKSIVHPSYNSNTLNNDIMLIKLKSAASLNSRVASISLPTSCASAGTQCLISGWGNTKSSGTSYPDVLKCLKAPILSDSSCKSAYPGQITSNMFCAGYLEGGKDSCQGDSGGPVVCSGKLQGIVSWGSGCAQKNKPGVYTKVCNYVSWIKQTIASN
Protocol: as §1, §2, §3, §8
^f Inhibitor concentrations were 41-42 μM.

PPE [6] = biological target: T4, PPE; experiment: Effect of streptavidin and avidin on reactivation of inhibited PPE; assay type: biochemical, porcine; conditions: monitored for two days
Protocol: ^a Percentage of regained enzymatic activity was measured in 0.1 M
Hepes, 0.5 M NaCl, pH 7.5 buffer, 8% Me2 SO and at 25° C.
Excess inhibitor was removed from enzymeinhibitor mixture by
centrifugation twice with Amicon microconcentrator10. Then 3-4 units of
avidin or strepavidin was added and enzymatic activity was monitored for […]

chymotrypsin = chymotrypsin (Bos taurus, UniProt P00766); experiment: Inactivation of chymotrypsin by biotin-isocoumarins (incubation method); assay type: biochemical, bovine; conditions: pH 7.5, inhibitor 20-400 μM; 0.1 M Hepes, 0.5 M NaCl, pH 7.5, 5-10% Me2SO, 25° C.; two values given for some compounds; read-out: kobs/[I] Chymotrypsin
Protocol: as §1, §2, §3, §4
^b Inhibitor concentrations were 20-400 μM.

Row | SMILES | kinact/KI (cathepsin G (cat G)) [M⁻¹ s⁻¹] | Percentage of inhibition of HR Granzyme A after 10 min of incubation of inhibitor and enzyme [1] [%] | kinact/KI [2] [M⁻¹ s⁻¹] | enzyme activity of inhibited PPE after Sephadex G-25 removal of excess inhibitor (PPE [3]; eluted with 0.1M acetate, 0.5M NaCl, pH 5.0) [%] | PPE activity detected in eluted protein fractions (PPE [3]; fractions eluted with 0.5M NH2OH) [%] | residual enzyme activity of PPE after inhibition (PPE [3]; pH 7.5 buffer, 25° C., 10 min) [%] | % of Enzyme Activity Reactivated, PPE +NH2OH (PPE [4]; 0.4 M NH2OH, immediately after addition) [%] | % of Enzyme Activity Reactivated, PPE in buffer (PPE [4]; after removal of excess inhibitor, 25° C. for two days, 2880 min) [%] | kinact/KI [5] [M⁻¹ s⁻¹] | kinact/KI (trypsin) [M⁻¹ s⁻¹] | % of Regained Enzyme Activity, PPE, +Avidin (PPE [6]; 3-4 units avidin, 2880 min) [%] | % of Regained Enzyme Activity, PPE, +Streptavidin (PPE [6]; 3-4 units streptavidin, 2880 min) [%] | % of Regained Enzyme Activity, PPE, Buffer (PPE [6]; pH 7.5, 8% Me2SO, 25° C.) [%] | kinact/KI (chymotrypsin) [M⁻¹ s⁻¹]
1 | COc1oc(=O)c2cc(NC(=O)CCCCCNC(=O)CCCCCNC(=O)CCCCC3SCC4NC(=O)NC43)ccc2c1Cl (centres unmarked) [Compound 6, 7-[6-(6-biotinylaminocaproyl)aminocaproyl]-amino-4-chloro-3-methoxyisocoumarin] | 2.2 | 5 | 37500 | 16 | 40 | 7 | – | – | – | – | – | – | – | –
2 | CCCOc1oc(=O)c2cc(NC(=O)CCCC[C@@H]3SC[C@@H]4NC(=O)N[C@@H]43)ccc2c1Cl [Compound 2, 7-biotinylamino-4-chloro-3-propoxyisocoumarin] | 6.7 | – | 19900 | – | – | – | 98 | 35 | 470 | 2.2 | 32 | 51 | 35 | 65
3 | O=C(CCCCCNC(=O)CCCCC1SCC2NC(=O)NC21)NCCCCCC(=O)Nc1ccc2c(Cl)c(OCCc3ccccc3)oc(=O)c2c1 (centres unmarked) [Compound 7, 7-[6-(6-biotinylaminocaproyl)aminocaproyl]-amino-4-chloro-3-(2-phenylethoxy)-isocoumarin] | – | – | 230 | – | – | – | – | – | – | – | – | – | – | –
